The text below walks through data of patent US20100183754A1, “Extract and compound for blood pressure regulation” (Taipei Medical University, priority 2009, published 2010).

The target of experiment [1] is ACE (Homo sapiens, UniProt P12821). Nature of the experiment: In vitro ACE inhibiting assay. Particulars: for ACE inhibiting activity (FIG. 11): purified in example 5, various concentrations. It counts as biochemical. An excerpt:
Wherein, the data of TC-1 to TC-4 are obtained from the whole plant extracts of Vitis thunbergii var. taiwaniana cultured by various plant growth substrates, respectively.
Moreover, the hot water extract of the Vitis thunbergii var. taiwaniana tea powder obtained in example 2 is used to perform the same ACE inhibiting assay, as shown in FIG. 6. […] Method A: culturing the tissue culture plantlet for 30 days, replacing the old culture medium with new culture medium, and then culturing the plantlet for another 60 days; in which the plantlet were cultured for 90 days. Method B: culturing the tissue culture plantlet for 30 days, directly adding the new culture medium onto the old culture medium, and then culturing for another 60 days; in which the plantlet were cultured for 90 days.
Various concentration of (+)-vitisin A and ampelopsin C purified in example 5 were used to perform ACE inhibiting activity assay.

The subject of experiment [2] is spontaneous hypertensive rats (SHRs). Nature of the experiment: 24-hour blood pressure test of SHRs after single oral administration. It counts as in vivo, rat. Particulars: single oral administration 10 mg/kg, versus control fed distilled water. How it is done: The Vitis thunbergii var. taiwaniana extracts of the present invention were used in the in vivo blood pressure regulation assay. The present embodiment was performed on 24 heads of five- to six-week old male spontaneous hypertensive rats (SHRs). The rats were housed for 7 weeks and then used for the assay while they were about twelve- to thirteen-week old. The SHRs were randomly divided into experimental group (12 heads of SHRs) and control group (12 heads of SHRs). The rats of the experimental group were fed with the Vitis thunbergii var. taiwaniana extract obtained in example 1, and the rats of the control group were fed with distilled water for instead. After oral administration by feeding tube, the blood pressure of all SHRs was measured for a certain time interval.
Similarly, the hot water extract of the roots and stems of the Vitis thunbergii var. taiwaniana cultivated in field for 5 to 6 months, which was transferred from tissue culture plantlets, was used in a 24-hour blood pressure test, as shown in FIG. 7 (the rats of the control group were fed with distilled water).
Moreover, the blood pressure of the SHRs fed with (+)-vitisin A purified in example 5 was measured during 24 hours after single oral administration.

By IC50 is commonly meant the concentration at which inhibition is half-maximal. A low value points to greater potency.

Each structure is given as a SMILES string.

Chain of ACE (P12821 30-1306, species assumed): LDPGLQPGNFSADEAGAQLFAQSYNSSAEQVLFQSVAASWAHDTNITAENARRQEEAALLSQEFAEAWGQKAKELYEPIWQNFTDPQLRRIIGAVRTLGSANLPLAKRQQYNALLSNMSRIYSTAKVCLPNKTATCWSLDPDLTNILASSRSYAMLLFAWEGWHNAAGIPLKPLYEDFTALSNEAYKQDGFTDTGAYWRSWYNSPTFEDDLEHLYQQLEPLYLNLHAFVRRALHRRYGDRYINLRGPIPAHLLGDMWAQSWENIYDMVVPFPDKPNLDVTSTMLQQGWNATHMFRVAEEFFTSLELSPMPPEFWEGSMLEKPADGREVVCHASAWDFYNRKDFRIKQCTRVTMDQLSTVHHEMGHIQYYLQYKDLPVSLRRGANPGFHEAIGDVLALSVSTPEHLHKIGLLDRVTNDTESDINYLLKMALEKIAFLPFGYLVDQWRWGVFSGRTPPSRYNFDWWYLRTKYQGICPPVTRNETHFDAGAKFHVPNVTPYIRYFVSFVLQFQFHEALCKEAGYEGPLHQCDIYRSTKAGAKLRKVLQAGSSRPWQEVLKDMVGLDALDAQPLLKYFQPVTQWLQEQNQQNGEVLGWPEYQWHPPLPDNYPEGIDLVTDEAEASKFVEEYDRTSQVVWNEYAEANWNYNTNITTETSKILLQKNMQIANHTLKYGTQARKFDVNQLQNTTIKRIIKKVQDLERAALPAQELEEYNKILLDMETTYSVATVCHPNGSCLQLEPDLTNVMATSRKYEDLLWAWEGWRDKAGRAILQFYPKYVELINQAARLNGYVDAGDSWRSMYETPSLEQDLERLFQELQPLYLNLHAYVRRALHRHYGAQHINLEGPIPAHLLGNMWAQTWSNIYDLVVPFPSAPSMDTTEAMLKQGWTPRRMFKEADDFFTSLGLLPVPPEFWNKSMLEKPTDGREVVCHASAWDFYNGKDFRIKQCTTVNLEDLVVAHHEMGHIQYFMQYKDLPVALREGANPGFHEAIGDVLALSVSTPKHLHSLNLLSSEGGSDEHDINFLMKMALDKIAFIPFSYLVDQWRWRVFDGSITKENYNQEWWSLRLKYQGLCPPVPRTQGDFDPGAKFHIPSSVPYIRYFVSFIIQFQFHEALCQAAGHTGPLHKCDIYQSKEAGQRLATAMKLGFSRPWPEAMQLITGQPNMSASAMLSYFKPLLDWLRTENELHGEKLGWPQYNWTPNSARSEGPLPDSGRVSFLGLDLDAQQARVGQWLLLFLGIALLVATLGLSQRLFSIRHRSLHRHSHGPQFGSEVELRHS

Take `Oc1ccc([C@H]2c3c(O)cc(O)cc3[C@H]3c4c(cc(O)cc4[C@@H]2c2cc(/C=C/c4cc(O)cc5c4[C@H](c4cc(O)cc(O)c4)[C@@H](c4ccc(O)cc4)O5)ccc2O)O[C@@H]3c2ccc(O)cc2)cc1` [(+)-vitisin A]: in experiment [1], the “ACE inhibiting activity (FIG. 11)” value is recorded as “obviously have ACE inhibiting activity”. Besides, the “blood pressure of SHRs in the period of 24 hours (FIG. 12)” value in experiment [2] is on record as “decreases significantly”.

In experiment [1] (purified in example 5, FIG. 11), `Oc1ccc([C@H]2c3c(O)cc4c5c3[C@@H]([C@H](c3ccc(O)cc3)c3c(O)cc(O)cc3[C@H]5[C@H](c3ccc(O)cc3)O4)[C@@H]2c2cc(O)cc(O)c2)cc1` [ampelopsin C] came in with a half-maximal inhibitory concentration (IC50) of 18.1 µM. Besides, in experiment [1], the “ACE inhibiting activity (FIG. 11)” value is listed as “obviously have ACE inhibiting activity”.
